Bridge positions count the residues as written; N and C are the ends. Square brackets hold non-standard residues; d marks the D form. Peptide text beside a SMILES is read from it. S5 = C=CCCC[C@](C)(N)C(=O)O
What was measured:
Format in all cases: in vivo, C57BL/6 mice
[1] = test system: mice with bleomycin-induced pulmonary fibrosis; test: Hydroxyproline content in lung of mice with pulmonary fibrosis; settings: Table 3 groups, 2 mg/kg i.p.; left lung lobes; chloramine-T method
Method: (§1) Male C57BL/6 mice were fasted overnight, then anesthetized with 45 mg/kg sodium pentobarbital by injection intraperitoneally (i.p.), and intratracheally injected with bleomycin at a dose of 3 U/kg. The specific operation steps are as follows: cut the neck skin of the mouse with as little trauma as possible, expose the trachea with the assistance of elbow ophthalmic forceps, puncture the trachea and inject about 50 μL of bleomycin into the trachea with a microsyringe, rotate the mouse quickly and stand it upright for 5 minutes in order to make bleomycin evenly enter the left and right lobe, thereby constructing an animal model. The whole operation was performed at a surgical table at about […]. Mice in the sham operation group were intratracheally injected with an equal amount of physiological saline for injection.
(§2) Hydroxyproline accounts for 13.4% (w/w) of collagen, and extremely small amount of elastin, while it is absent in other proteins. […] Pulmonary fibrosis models were prepared according to the method described in Example 2 and administered in groups according to Table 3. The content of hydroxyproline in the lobes of left lung of the animals was measured 28 days later, and the condition of pulmonary fibrosis was evaluated.
The specific method is as follows: the mice in the animal model prepared in Example 2 was feed in a SPF animal room and treated with polypeptide according to the dosing schedule of Table 3, and all left lobes of lung of the experimental animal was taken on the 21st day after the animal model was constructed and the wet weight was recorded. Then 10% (w/w) tissue homogenate was prepared by ultrasonic homogenization using physiological saline. About 150 μL of homogenate supernatant was taken, and 500 μL of alkali hydrolysate was added (provided by Hydroxyproline alkaline hydrolysis kit of Nanjing Jiancheng Bioengineering Technology Co., Ltd.). After vortex mixing, the mixture was treated with alkaline hydrolysis for 40 min under conditions of 120° C., 0.1 Kpa. After adjusting the pH value, the volume was held constant, and the supernatant was taken after performing activated carbon treatment. The hydroxyproline was determined according to the chloramine-T method (the method of the present example refers to the instruction provided with kit, which was purchased from Nanjing Jiancheng Bioengineering Technology Co., Ltd.). […] In FIG. 10, “##” represents that P value is less than 0.01 when comparing the content of hydroxyproline in the administration group with that in the sham operation group; and “*” represents that P value is less than 0.05 and“**” represents that P value is less than 0.01 when comparing the content of hydroxyproline in the administration group with that in bleomycin group.
as §2, with “collagen, and accounts for extremely small” for “collagen, and extremely small”, “in the all lobes of” for “in the lobes of”
The specific method is as follows: the mice in the animal model prepared in Example 2 was feed in an SPF animal room and treated with polypeptide according to the dosing schedule of Table 3, and all the left lobes of lung of the experimental animal was taken on the 21st day after the animal model was constructed and the wet weight was recorded. Then 10% (w/w) tissue homogenate was prepared by ultrasonic homogenization using physiological saline. About 150 μL of homogenate supernatant was taken, and 500 μL of alkali hydrolysate was added (provided by Hydroxyproline alkaline hydrolysis kit of Nanjing Jiancheng Bioengineering Technology Co., Ltd.). After vortex mixing, the mixture was treated with alkaline hydrolysis for 40 min under conditions of 120° C., 0.1 Kpa. […]

[2] = test system: mice with bleomycin-induced pulmonary fibrosis; test: Lung weight index in mice with pulmonary fibrosis; settings: Table 3 groups, 2 mg/kg i.p.; after 28 days; lung weight (mg) divided by body weight (g)
Method: as §1
Pulmonary fibrosis model was prepared according to the method described in Example 2, and administered in groups according to Table 3. After 28 days, the lungs of the mice were finely stripped and weighed, and a lung weight index was obtained from dividing the lung weight (mg) by the body weight (g) of the mice. […] In FIG. 7, “##” represents that P value is less than 0.01 when the lung weight index of administration group was compared with that of the sham operation group; “*” represents that P value is less than 0.05 when the lung weight index of administration group was compared with that of the bleomycin group; “**” represents that P value is less than 0.01 when the lung weight index of administration group was compared with that of bleomycin group.
Pulmonary fibrosis models were made according to the method described in Example 2 and administered in groups according to Table 9. After 28 days, the lungs of the mice were finely stripped and weighed, and the lung weight (mg) was divided by the body weight (g) of the mice to obtain a lung weight index. […] In FIG. 13, “##” represents that P value is less than 0.01 when the lung weight index of the administration groups were compared with that of the sham operation group; “*” represents that P value is less than 0.05 and “**” represents that P value is less than 0.01 when the lung weight index of the administration groups were compared with bleomycin group.

[3] = test system: mice with bleomycin-induced pulmonary fibrosis; test: Pulmonary function (Flexivent) in mice with pulmonary fibrosis; settings: Table 3 groups, 2 mg/kg i.p.; for Dynamic compliance (mL/cmH2O) / Dynamic elasticity (cmH2O./mL) / Dynamic resistance (cmH2O · s/Ml) / Inspiratory capacity: 28th day after model construction; for pulmonary function of mice with pulmonary fibrosis (in words): FIG. 11
Method: as §1
(§3) Pulmonary function is a gold indicator for clinical detection of pulmonary fibrosis in patients. The decline of lung function is generally accompanied by an aggravation of fibrosis, while the improvement of lung function generally represents the recovery of lung tissue structure. Pulmonary fibrosis models were prepared according to the method described in Example 2 and administered in groups according to Table 3. On the 28th day after the construction of the animal model, the mice were anesthetized with sodium pentobarbital (45 mg/kg, i.p.). Lung function was tested by the Flexivent Small-animal respiratory mechanics and the testing methods were TLC and SnapShots (Testing method refers to Lv X, Wang X, Li K, et al. Rupatadine Protects against Pulmonary Fibrosis by Attenuating PAF-Mediated Senescence in Rodents [J]. PloS one, 2013, 8(7): e68631).
as §3, with “lung function also generally represents” for “lung function generally represents”, “to Table 9. 28 days later, the mice” for “to Table 3. On the 28th day after the construction of the animal model, the mice”, “Senescence in Rodents[J]. PloS one,” for “Senescence in Rodents [J]. PloS one,”

CSCC[C@H](NC(=O)[C@H](CC(C)C)NC(=O)[C@@H](N)Cc1c[nH]cn1)C(=O)N[C@@H](C)C(=O)N[C@@H](CS)C(=O)N[C@@H](Cc1ccccc1)C(=O)N[C@H](C(=O)N[C@@H](CS)C(=O)N[C@@H](C)C(=O)N[C@@H](CCCCN)C(=O)N[C@@H](CCCCN)C(=O)N[C@@H](CC(C)C)C(=O)N[C@@H](CCCCN)C(=O)N[C@@H](CCCCN)C(=O)N[C@@H](CCCNC(=N)N)C(=O)O)[C@@H](C)O [MR2] (H-HLMACFTCAKKLKKR-OH; N-terminus and C-terminus assumed)
hydroxyproline content (μg/mg protein) [1]: 0.9087 μg/mg protein | Lung weight index [2]: 11.4625 | Dynamic compliance (mL/cmH2O) [3]: 0.22 mL/cmH2O | Dynamic elasticity (cmH2O./mL) [3]: 68.83 cmH2O./mL | Dynamic resistance (cmH2O · s/Ml) [3]: 1.775 cmH2O · s/Ml | Inspiratory capacity [3]: 0.456 mL | pulmonary function of mice with pulmonary fibrosis (in words) [3]: improved

CSCC[C@@H]1NC(=O)[C@H](CC(C)C)NC(=O)[C@@](C)(N)CCCC=CCCC[C@@](C)(C(=O)N[C@@H](Cc2ccccc2)C(=O)N[C@H](C(=O)N[C@@H](CS)C(=O)N[C@@H](C)C(=O)N[C@@H](CCCCN)C(=O)N[C@@H](CCCCN)C(=O)N[C@@H](CC(C)C)C(=O)N[C@@H](CCCCN)C(=O)N[C@@H](CCCCN)C(=O)N[C@@H](CCCNC(=N)N)C(=O)O)[C@@H](C)O)NC(=O)[C@H](C)NC1=O [S1, S5-Leu-Met-Ala-S5-Phe-Thr-Cys-Ala-Lys-Lys-Leu-Lys-Lys-Arg] (H-[S5]LMA[S5]FTCAKKLKKR-OH; staple 1-5; N-terminus and C-terminus assumed)
hydroxyproline content (μg/mg protein) [1]: 0.7087 μg/mg protein | Lung weight index [2]: 8.675 | Dynamic compliance (mL/cmH2O) [3]: 0.2883 mL/cmH2O | Dynamic elasticity (cmH2O./mL) [3]: 52.17 cmH2O./mL | Dynamic resistance (cmH2O · s/Ml) [3]: 1.15 cmH2O · s/Ml | Inspiratory capacity [3]: 0.71 mL | pulmonary function of mice with pulmonary fibrosis (in words) [3]: improved

CSCC[C@@H]1NC(=O)[C@@](C)(NC(=O)[C@@H](N)Cc2c[nH]cn2)CCCC=CCCC[C@@](C)(C(=O)N[C@H](C(=O)N[C@@H](CS)C(=O)N[C@@H](C)C(=O)N[C@@H](CCCCN)C(=O)N[C@@H](CCCCN)C(=O)N[C@@H](CC(C)C)C(=O)N[C@@H](CCCCN)C(=O)N[C@@H](CCCCN)C(=O)N[C@@H](CCCNC(=N)N)C(=O)O)[C@@H](C)O)NC(=O)[C@H](CS)NC(=O)[C@H](C)NC1=O [S2, His-S5-Met-Ala-Cys-S5-Thr-Cys-Ala-Lys-Lys-Leu-Lys-Lys-Arg] (H-H[S5]MAC[S5]TCAKKLKKR-OH; staple 2-6; N-terminus and C-terminus assumed)
hydroxyproline content (μg/mg protein) [1]: 0.7063 μg/mg protein | Lung weight index [2]: 9.35 | Dynamic compliance (mL/cmH2O) [3]: 0.2683 mL/cmH2O | Dynamic elasticity (cmH2O./mL) [3]: 55.33 cmH2O./mL | Dynamic resistance (cmH2O · s/Ml) [3]: 1.25 cmH2O · s/Ml | Inspiratory capacity [3]: 0.688 mL | pulmonary function of mice with pulmonary fibrosis (in words) [3]: improved

CC(C)C[C@H](NC(=O)[C@H](CCCCN)NC(=O)[C@H](CCCCN)NC(=O)[C@H](C)NC(=O)[C@H](CS)NC(=O)[C@]1(C)CCCC=CCCC[C@](C)(NC(=O)[C@H](CC(C)C)NC(=O)[C@@H](N)Cc2c[nH]cn2)C(=O)N[C@@H](C)C(=O)N[C@@H](CS)C(=O)N[C@@H](Cc2ccccc2)C(=O)N1)C(=O)N[C@@H](CCCCN)C(=O)N[C@@H](CCCCN)C(=O)N[C@@H](CCCNC(=N)N)C(=O)O [S3, His-Leu-S5-Ala-Cys-Phe-S5-Cys-Ala-Lys-Lys-Leu-Lys-Lys-Arg] (H-HL[S5]ACF[S5]CAKKLKKR-OH; staple 3-7; N-terminus and C-terminus assumed)
hydroxyproline content (μg/mg protein) [1]: 0.8287 μg/mg protein | Lung weight index [2]: 8.8 | Dynamic compliance (mL/cmH2O) [3]: 0.255 mL/cmH2O | Dynamic elasticity (cmH2O./mL) [3]: 47 cmH2O./mL | Dynamic resistance (cmH2O · s/Ml) [3]: 1.143 cmH2O · s/Ml | Inspiratory capacity [3]: 0.646 mL | pulmonary function of mice with pulmonary fibrosis (in words) [3]: improved

CSCC[C@H](NC(=O)[C@H](CC(C)C)NC(=O)[C@@H](N)Cc1c[nH]cn1)C(=O)N[C@@]1(C)CCCC=CCCC[C@@](C)(C(=O)N[C@@H](C)C(=O)N[C@@H](CCCCN)C(=O)N[C@@H](CCCCN)C(=O)N[C@@H](CC(C)C)C(=O)N[C@@H](CCCCN)C(=O)N[C@@H](CCCCN)C(=O)N[C@@H](CCCNC(=N)N)C(=O)O)NC(=O)[C@H]([C@@H](C)O)NC(=O)[C@H](Cc2ccccc2)NC(=O)[C@H](CS)NC1=O [S4, His-Leu-Met-S5-Cys-Phe-Thr-S5-Ala-Lys-Lys-Leu-Lys-Lys-Arg] (H-HLM[S5]CFT[S5]AKKLKKR-OH; staple 4-8; N-terminus and C-terminus assumed)
hydroxyproline content (μg/mg protein) [1]: 0.65 μg/mg protein | Lung weight index [2]: 8.925 | Dynamic compliance (mL/cmH2O) [3]: 0.2617 mL/cmH2O | Dynamic elasticity (cmH2O./mL) [3]: 59.33 cmH2O./mL | Dynamic resistance (cmH2O · s/Ml) [3]: 1.267 cmH2O · s/Ml | Inspiratory capacity [3]: 0.564 mL | pulmonary function of mice with pulmonary fibrosis (in words) [3]: improved

CSCC[C@H](NC(=O)[C@H](CC(C)C)NC(=O)[C@@H](N)Cc1c[nH]cn1)C(=O)N[C@@H](C)C(=O)N[C@@]1(C)CCCC=CCCC[C@@](C)(C(=O)N[C@@H](CCCCN)C(=O)N[C@@H](CCCCN)C(=O)N[C@@H](CC(C)C)C(=O)N[C@@H](CCCCN)C(=O)N[C@@H](CCCCN)C(=O)N[C@@H](CCCNC(=N)N)C(=O)O)NC(=O)[C@H](CS)NC(=O)[C@H]([C@@H](C)O)NC(=O)[C@H](Cc2ccccc2)NC1=O [S5, His-Leu-Met-Ala-S5-Phe-Thr-Cys-S5-Lys-Lys-Leu-Lys-Lys-Arg] (H-HLMA[S5]FTC[S5]KKLKKR-OH; staple 5-9; N-terminus and C-terminus assumed)
hydroxyproline content (μg/mg protein) [1]: 0.6575 μg/mg protein | Lung weight index [2]: 8.575 | Dynamic compliance (mL/cmH2O) [3]: 0.3117 mL/cmH2O | Dynamic elasticity (cmH2O./mL) [3]: 47.5 cmH2O./mL | Dynamic resistance (cmH2O · s/Ml) [3]: 0.85 cmH2O · s/Ml | Inspiratory capacity [3]: 0.738 mL | pulmonary function of mice with pulmonary fibrosis (in words) [3]: improved

— patent publication US20210179680A1, “POLYPEPTIDE, DERIVATIVES THEREOF, AND APPLICATION THEREOF IN PREPARATION OF DRUGS HAVING RESISTANCE TO PULMONARY FIBROSIS” (priority 2016, published 2021)
